Measurements as given in PubChem BioAssay (NCI).
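Five concentrations, 48 hours, 96-well plates. GI50 marks 50% less growth. TGI: total growth inhibition.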

Assays:
Assay in all cases: NCI anticancer screen, dose series, 48 h
PC-3 prostate = system: PC-3 prostate
U251 CNS = system: U251 CNS
IGROV1 ovarian = system: IGROV1 ovarian
SK-MEL-28 melanoma = system: SK-MEL-28 melanoma
M14 melanoma = system: M14 melanoma
A498 renal = system: A498 renal
SW-620 colon = system: SW-620 colon
BT-549 breast = system: BT-549 breast
OVCAR-4 ovarian = system: OVCAR-4 ovarian
HT29 colon = system: HT29 colon

| Compound | GI50 (PC-3 prostate) [µM] | TGI (PC-3 prostate) [µM] | GI50 (U251 CNS) [µM] | TGI (U251 CNS) [µM] | GI50 (IGROV1 ovarian) [µM] | TGI (IGROV1 ovarian) [µM] | GI50 (SK-MEL-28 melanoma) [µM] | TGI (SK-MEL-28 melanoma) [µM] | GI50 (M14 melanoma) [µM] | TGI (M14 melanoma) [µM] | GI50 (A498 renal) [µM] | TGI (A498 renal) [µM] | GI50 (SW-620 colon) [µM] | TGI (SW-620 colon) [µM] | GI50 (BT-549 breast) [µM] | TGI (BT-549 breast) [µM] | GI50 (OVCAR-4 ovarian) [µM] | TGI (OVCAR-4 ovarian) [µM] | GI50 (HT29 colon) [µM] | TGI (HT29 colon) [µM] |
| --- | --- | --- | --- | --- | --- | --- | --- | --- | --- | --- | --- | --- | --- | --- | --- | --- | --- | --- | --- | --- |
| NC(=O)c1cccc2c(N[C@H](CN3CCC3)c3ccc(Cl)c(C(F)(F)F)c3)ncnc12 | 0.638 | 12.8 | 0.548 | 12.1 | 0.0989 | 2.63 | 1.18 | 4.13 | 1.47 | 3.69 | 0.138 | 0.908 | 3.43 | 16.3 | 0.657 | 3.61 | 3.26 | 16.6 | 0.981 | 12.1 |
| COC(=O)C1=COC2OC3C(C(C)O)C(=O)OC34C=CC1C24 (stereo not given) |  | > 100 |  | > 100 |  | > 100 |  | > 100 |  | > 100 |  | > 100 |  | > 100 |  | > 100 |  | > 100 |  | > 100 |
| N#CC(C#N)=CNCCN1CCN(C=C(C#N)C#N)CC1 |  | > 100 |  | > 100 |  | > 100 |  | > 100 |  | > 100 |  | > 100 |  | > 100 |  | > 100 |  | > 100 |  | > 100 |
| O=C(O)CCCCn1ccc(=O)[nH]c1=O |  | > 100 |  | > 100 |  | > 100 |  | > 100 |  | > 100 |  | > 100 |  | > 100 |  | > 100 |  | > 100 |  | > 100 |
| CNS(=O)(=O)OCC1OC(n2cnc3cncnc32)C(O)C1O (stereo not given) | > 100 | > 100 | > 100 | > 100 | > 100 | > 100 | > 100 | > 100 | > 100 | > 100 | > 100 | > 100 | > 100 | > 100 | > 100 | > 100 | > 100 | > 100 | > 100 | > 100 |
| CC1CCCC(C(=O)CC2CC(=O)NC(=O)C2)C1=O (stereo not given) |  | > 100 |  | > 100 |  | > 100 |  | > 100 |  | > 100 |  | > 100 |  | > 100 |  | > 100 |  | > 100 |  | > 100 |
| ClCCCSSCCCCl |  | 85.5 |  | > 100 |  | > 100 |  | > 100 |  | > 100 |  | > 100 |  | > 100 |  | 57.9 |  | > 90.7 |  | > 69.1 |
| COc1cc2c3c(n(CCCN4CCNCC4)c(=O)c2cc1OC)-c1cc2c(cc1C3=O)OCO2 | 0.94 | 10.1 | 0.0892 | 2.92 | 2.03 | 20.7 | 4.11 | 19.6 | 1.09 | 7.31 | 0.281 | 4.44 | 0.0613 | 6.32 | 1.4 | 7.97 | 4.05 | 12.4 | 0.942 | 29.8 |
| O=C1Nc2ccccc2/C1=C\c1c(-c2ccccc2)nc2sccn12 | 1.95 | 17.4 | 2.25 | 7.96 | 1.98 | > 54.2 | 8.98 | 44.9 | 1.98 | 7.61 | 0.927 | 5.33 | 2.16 | 27.1 | 3.3 | 16.9 | 12.6 | 62.8 | 3.14 | 36.9 |
| CCn1c(-c2nonc2N)nc2c(C#CC(C)(C)O)ncc(OC3CCNCC3)c21 | 7.58 | > 25 | 3.74 | > 25 | 0.696 | > 25 | 14.9 | > 25 | 21.6 | > 25 | 0.0958 | 13.4 | 10.3 | > 25 | 8.78 | > 25 | 14.1 | > 25 | 8.93 | > 25 |
| COc1cc2c(NCCCCCO)ncnc2c(OC)c1OC |  | > 100 |  | > 100 |  | > 100 |  | > 100 |  | > 100 |  | > 100 |  | > 100 |  | > 100 |  | > 100 |  | > 100 |
| Fc1cc(F)c(F)c(S)c1F |  | 42.2 |  | > 100 |  | > 100 |  | > 100 |  | > 100 |  | 33.2 |  | > 100 |  | 52 |  | > 100 |  | > 100 |
